Source: paper PMC11433283, “Sulfated Aeruginosins from Lake Kinneret: Microcystis Bloom, Isolation, Structure Elucidation, and Biological Activity” (Marine Drugs, 2024)

Biological target: T1, serine protease trypsin (Bos taurus, UniProt P00760)
T1 construct: purchased Sigma-Aldrich T1426
T1 sequence (P00760 24-246): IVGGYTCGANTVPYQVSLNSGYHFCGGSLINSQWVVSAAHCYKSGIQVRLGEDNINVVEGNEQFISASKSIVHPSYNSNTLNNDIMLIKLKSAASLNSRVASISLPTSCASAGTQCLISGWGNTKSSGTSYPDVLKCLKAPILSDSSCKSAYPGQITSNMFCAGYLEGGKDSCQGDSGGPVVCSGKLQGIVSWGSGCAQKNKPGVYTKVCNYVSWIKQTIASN
Experiment: Trypsin inhibition (protease inhibition assay, BAPNA substrate)
Assay type: biochemical
Conditions: for IC50: Tris buffer (50 mM Tris-HCl, 100 mM NaCl, 1 mM CaCl2, pH 7.5), 37 °C, 5 min pre-incubation, absorbance 405 nm, kinetic over 10 min; for IC50 values for trypsin compared with those of aeruginosins KT608A and KT608B: comparison with literature values of KT608A and KT608B [19]
Procedure: The samples for biological assays were dissolved in ethanol at a concentration of 1 mg/mL and further diluted with Tris buffer to the desired concentrations. The samples were tested for inhibition of trypsin (Cat# T1426, Sigma-Aldrich, St. Louis, MO, USA). The assay was performed in a Tris buffer (50 mM Tris-HCl, 100 mM NaCl, and 1 mM CaCl2 at pH 7.5). Benzoyl-L-arginine-p-nitroanilide hydrochloride (BAPNA Cat# 03,310 Chem-Impex Int’l Inc., Wood Dale, IL, USA), the trypsin substrate was dissolved at 1 mg/mL in 1:9 EtOH/buffer. The enzyme was dissolved in a buffer at 1 mg/mL. To each well were added 100 µL of buffer, 10 µL of enzyme, and 10 µL of sample. The plate was placed in the spectrophotometer at 37 °C. After 5 min, 100 µL of substrate solution was added to each well, and the plate was placed in the spectrophotometer for the kinetic measurement of the absorbance intensity over 10 min at a wavelength of 405 nm.

Compound: N=C(N)NCCCCNC(=O)[C@@H]1C[C@@H]2CC[C@@H](OS(=O)(=O)O)C[C@@H]2N1C(=O)[C@@H](Cc1ccccc1)NC(=O)[C@@H](O)Cc1ccc(O)cc1 [Aeruginosin KT688, L-Hpla-D-Phe-L-Choi-6-sulfate-agmatine]
- IC50 (BAPNA substrate): 2380 nM
- IC50 values for trypsin compared with those of aeruginosins KT608A and KT608B: comparable with those of aeruginosins KT608A and KT608B

Compound: 6-Cl-Hpla-7-sulfate-2-Ile-Choi-amide [Aeruginosin KT575]
- Inhibition of trypsin (inactive at tested concentration) (at a concentration of 1.7 mM, BAPNA substrate, pH 7.5, 37 °C, 405 nm): inactive

Compound: N=C(N)NCCCCNC(=O)[C@@H]1C[C@@H]2CC[C@@H](OS(=O)(=O)O)C[C@@H]2N1C(=O)[C@H](CCc1ccc(O)cc1)NC(=O)[C@@H](O)Cc1ccc(O)cc1 [Aeruginosin KT718, L-Hpla-L-Hty-L-Choi-6-sulfate-Agm]
- IC50 (BAPNA substrate): 1430 nM
- IC50 values for trypsin compared with those of aeruginosins KT608A and KT608B: comparable with those of aeruginosins KT608A and KT608B
